The source of these data is ChEMBL document CHEMBL1133725, “Modeling of kappa-opioid receptor/agonists interactions using pharmacophore-based and docking simulations” (J Med Chem, 2000).

Test [1] deals with T1, Kappa-type opioid receptor (Cavia porcellus, UniProt P41144). Description: Inhibition of [3H]diprenorphine binding to Opioid receptor kappa 1 in guinea pig cerebellar fraction.
Test [2] has as its target T1, Kappa-type opioid receptor. Description: Inhibition of [3H]U-69593 binding to Opioid receptor kappa 1 in guinea pig brain homogenates. Format: tissue-based.
Test [3] concerns the target T1, Kappa-type opioid receptor. Description: Inhibition of [3H]EKC binding to Opioid receptor kappa 1 in guinea pig forebrain.

T1 sequence (P41144 whole entry): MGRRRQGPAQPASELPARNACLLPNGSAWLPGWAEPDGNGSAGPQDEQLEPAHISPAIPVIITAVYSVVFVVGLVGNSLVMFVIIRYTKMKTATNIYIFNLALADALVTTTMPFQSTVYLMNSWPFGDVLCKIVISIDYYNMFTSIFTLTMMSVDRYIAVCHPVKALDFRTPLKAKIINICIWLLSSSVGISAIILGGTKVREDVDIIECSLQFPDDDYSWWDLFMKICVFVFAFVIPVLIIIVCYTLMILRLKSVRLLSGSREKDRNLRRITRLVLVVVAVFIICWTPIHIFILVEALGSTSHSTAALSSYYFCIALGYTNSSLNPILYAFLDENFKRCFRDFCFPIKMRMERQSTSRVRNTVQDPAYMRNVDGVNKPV

What is called Ki is a measure of affinity in units of concentration, obtained from inhibition or displacement. A lower Ki goes with higher affinity. `COC(=O)[C@]1(c2ccccc2)C[C@@H]1CN1CC[C@@]2(C)c3cc(O)ccc3CC1[C@@H]2C`: affinity in test [1] was put at a Ki of 240 nM. In the case of `O=C([C@@H]1CCc2cc(Cl)c(Cl)cc21)N1CCSC[C@H]1CN1CCCC1`, in test [2], affinity was put at a Ki of 0.44 nM. In test [2], `O=C1N(c2ccc(Cl)c(Cl)c2)CCCN1[C@H](CN1CCCC1)c1ccccc1` came in with an inhibitory constant (Ki) of 0.42 nM. Take `CN1CCCC1[C@@H]1CCCCN1C(=O)Cc1ccc(Cl)c(Cl)c1` (stereo not given in full): in test [2], the Ki was found to be 0.33 nM.

`O=C1[C@@H](c2ccc(Cl)c(Cl)c2)CCN1[C@H]1CCCC[C@@H]1N1CCCC1` came in with a Ki in test [3] of 10 nM.
